Assays:
[1] = tested on: SJL/J mice infected with Theiler's murine encephalomyelitis virus; experiment: Spinal cord demyelination quantitation (lesion load) in TMEV-infected mice; format: in vivo, mouse
Method: (§1) All mice used in the experiments were SJL/J mice (Jackson Laboratories, Bar Harbor, Me.). Six- to eight-week-old mice were intracerebrally injected with 2.0×10^6 pfu of Daniel's strain of Theiler's murine encephalomyelitis virus.
(§2) Areas of spinal cord demyelination (lesion load) and remyelination (73) were determined from multiple cross-sections of plastic-embedded spinal cords, using a camera lucida system and a computerized drawing tablet (39). Briefly, mice were sacrificed by overdose with sodium pentobarbital and perfused by intracardiac puncture with Trumps fixative, containing 4% paraformaldehyde and 1% glutaraldehyde. Spinal cords were removed, post-fixed in osmium textroxide, and sectioned into 1 mm blocks. Every third block (10-12 blocks per spinal cord; cervical to lumbar range) was embedded in Araldite plastic. The embedded tissues were cross-sectioned at 1 μm thickness, and the slides stained with 4% paraphenylenediamine to highlight the myelin sheaths.
Using a camera lucida attached to a Zeiss photomicroscope and a ZIDAS interactive digital analysis system, three parameters were measured from each slide: total white matter area, demyelinated lesion area, and remyelination area. Outline of these regions were traced and the areas calculated by the computerized digital analysis system. Demyelination was expressed as the total lesion area as a percentage of total white matter area. Remyelination was expressed as the total remyelination area as a percentage of the total demyelinated lesion area. The criterion for remyelination by oligodendrocytes was abnormally thin myelin sheaths. All remyelination data refers to oligodendrocyte-mediated remyelination. Occasionally, Schwann-cell mediated remyelination was observed, characterized by abnormally thick myelin sheaths and nuclei juxtaposed to the myelin sheath.
Virus was injected on Day 0.
Chronically infected mice (124-365 days post-infection) were treated subcutaneously for periods of 41-76 days. […] These mice were sacrificed after 65 days. […] The members of this group were sacrificed after 65-76 days. […] Sacrifice of these mice occurred after 41-65 days. The control group of mice received PBS. In all groups, spinal cord demyelination was measured after sacrifice.
Chronically infected mice (160-477 days post-infection) were treated by intraperitoneal injection with antibodies for periods of 36-76 days. One group of mice received Normal antibodies, administered in 10 injections of 0.05 mg each for a total of 0.5 mg over 42 days. […] PBS was administered to the control group of mice. Spinal cord white matter demyelinating pathology was measured post-sacrifice for all mice.
Each mouse received 5 weekly injections for total antibody doses of 0.5 or 1.5 mg (0.1-0.3 mg/injection). After sacrifice, spinal cord demyelination was measured.

[2] = tested on: SJL/J mice infected with Theiler's murine encephalomyelitis virus; experiment: Spinal cord remyelination quantitation in TMEV-infected mice; format: in vivo, mouse
Method: as §1
as §2, with “The embedded tissues were cross-sectioned at 1 μm thickness, and the slides stained with 4% paraphenylenediamine to highlight the myelin sheaths.” left out
Using a camera lucida attached to a Zeiss photomicroscope and a ZIDAS interactive digital analysis system, three parameters were measured from each slide: total white matter area, demyelinated lesion area, and remyelination area. Outline of these regions were traced and the areas calculated by the computerized digital analysis system. Demyelination was expressed as the total lesion area as a percentage of total white matter area. Remyelination was expressed as the total remyelination area as a percentage of the total demyelinated lesion area. […]

[3] = tested on: TMEV; experiment: Serum anti-TMEV IgG titers after glatiramer acetate immunization; format: in vivo, Theiler's murine encephalomyelitis virus; conditions: four weeks after immunization, vs control mice
Method: An indirect ELISA was performed in which serum or a purified antibody was applied to plates that were pre-coated with glatiramer acetate or other protein antigens. The antigen of interest was dissolved in 0.1 M carbonate buffer, pH 9.5, and applied at 1 μg per well in 96-well polystrene plates. Incubation was overnight at 4° C. Plates were then rinsed with PBST (phosphate buffered saline containing 0.05% Tween 20 detergent) and incubated for 1 hr in PBSM (phosphate buffered saline containing 5% defatted milk powder). Plates were rinsed with PBST, then incubated for 4 hr at room temperature with 50×PBS. Plates were rinsed with PBST, then incubated with biotinylated secondary antibodies that were raised in goat. The secondary antibodies, diluted in PBSM 1:50, were specific to mouse IgG or mouse IgM. Incubation was for 2 hr at room temperature. Plates were rinsed in PBST, then PBS. Streptavidin-alkaline phosphatase conjugate diluted in PBS was applied to the plates for 2 hr room temperature. Plates were rinsed with PBST, with a final rinse in water. The colored reaction product was produced by incubation with p-nitrophenyl phosphatase in 0.1 M carbonate buffer plus 1 mM magnesium chloride. The reaction was stopped with 0.5 N sodium hydroxide. […] Optical absorbency was measured at a wavelength of 405 nm.
(§3) Serum titers of antibodies against TMEV and anti-TMEV DTH reactions were measured.

[4] = tested on: UV-inactivated TMEV; experiment: TMEV delayed type hypersensitivity (ear thickness); format: in vivo, mouse; conditions: immunized mice vs IFA control
Method: Ear thickness was measured prior to injection, and 24 and 48 hr after injection.
as §3

[5] = tested on: TMEV; experiment: TMEV antigen expression (virus antigen-positive cells); format: in vivo, Theiler's murine encephalomyelitis virus; conditions: 6-9 wks after high-dose immunization
[6] = Serum titres of glatiramer acetate IgG after glatiramer acetate immunization (ELISA); format: in vivo, mouse
Method: The antigen of interest was dissolved in 0.1 M carbonate buffer, pH 9.5, and applied at 1 μg per well in 96-well polystrene plates. Incubation was overnight at 4° C. Plates were then rinsed with PBST (phosphate buffered saline containing 0.05% Tween 20 detergent) and incubated for 1 hr in PBSM (phosphate buffered saline containing 5% defatted milk powder). Plates were rinsed with PBST, then incubated for 4 hr at room temperature with 50×PBS. Plates were rinsed with PBST, then incubated with biotinylated secondary antibodies that were raised in goat. The secondary antibodies, diluted in PBSM 1:50, were specific to mouse IgG or mouse IgM. Incubation was for 2 hr at room temperature. Plates were rinsed in PBST, then PBS. Streptavidin-alkaline phosphatase conjugate diluted in PBS was applied to the plates for 2 hr room temperature. Plates were rinsed with PBST, with a final rinse in water. The colored reaction product was produced by incubation with p-nitrophenyl phosphatase in 0.1 M carbonate buffer plus 1 mM magnesium chloride. The reaction was stopped with 0.5 N sodium hydroxide. Antibody isotyping was performed using a detection kit and purified isotype standards from Zymed Laboratories (San Francisco, Calif.). Extrapolation of the concentration of each isotype within the antibody samples was based on the sample dilution that produced the absorbence signal falling within the most linear portion of each standard isotype curve. Optical absorbency was measured at a wavelength of 405 nm.
Antibodies from normal SJL serum (SJL Ig) and commercial, pooled mouse serum (Pooled Ig) were also purifed by Protein A/G chromatography.
Mice were sacrificed on Day 65 post-immunization. […] The secondary antibody was biotinylated anti-mouse IgG.
Serum was isolated from these mice on Day 62. […] Serum was isolated from these mice on Day 41. […] Serum was isolated on Day 76. […] The secondary antibody was biotinylated anti-mouse IgG.
The final passive transfer was on Day 35. After 41 days of treatment, both groups of mice were sacrificed and serum titres of Copolymer IgG was measured by ELISA. The secondary antibody was biotinylated anti-mouse IgG.

[7] = tested on: lymph node-derived lymphocytes from MBP84-102- and PLP179-191-immunized mice; experiment: In vitro [3H]-thymidine proliferation of lymph node-derived lymphocytes from myelin peptide-immunized mice; format: cell-based, mouse; conditions: Experiment 6A; 53 hours culture
Method: Two mice were subcutaneously injected in the flanks with MBP 84-102 in complete Fruend's adjuvant (CFA). MBP84-102 was obtained by following the procedure of Hawes et al (24). A method similar to that of Tuohy et al. was employed to produce PLP179-191 (70). PLP179-191 in CFA was subcutaneously injected into the flanks of 1 mouse. […] In the last 13 hours of culture, 1 μCi of [^3H]-thymidine was added and its incorporation measured by scintillation counting of harvested cells.
Mice were subcutaneously injected in the flanks with MBP84-102 (2 mice) peptide in CFA. After 10 days, inguinal and peri-aortic lymph nodes were removed, dissociated, and grown for 74 hours in cultures in medium alone or with additional additives as shown in FIG. 17. In the last 12 hours of culture, 1 μCi of [^3H]-thymidine was added and its incorporation measured by scintillation counting of harvested cells.

[8] = tested on: multiple sclerosis; conditions: daily subcutaneous injections, 20 mg/injection; cited from earlier work
[9] = tested on: experimental autoimmune encephalomyelitis (EAE); conditions: unlike MBP; cited from earlier work

## L-glutamic acid polymer with L-alanine, L-lysine and L-tyrosine, acetate (salt) [glatiramer acetate]
[1]; early disease, 45 days post-infection, 0.1 mg/injection, 60 days of treatment
  effect on extent of demyelination: no statistically significant effect
[1]; late disease, high dose (5 mg glatiramer acetate/IFA, 1-2 injections), vs PBS
  effect on demyelinating lesions: expansion of the demyelinating lesions
[1]; late disease, high dose of glatiramer acetate
  white matter demyelinated (mean lesion load): 20%
[1]; late disease, low doses (0.1 mg/injection), alone or with adjuvant
  effect on extent of demyelination: did not alter the extent of demyelination
[1]; late disease, low-dose glatiramer acetate
  white matter demyelinated (mean lesion load): 10%
[2]; Example 8, infected 6 months or longer, glatiramer acetate 0.1 mg/injection or antibodies 1.5 mg total
  remyelination of lesions (pathology): not more extensive than following the PBS treatment
[2]; late disease, s.c. treatment as Experiment 2A, alone or with IFA
  effect on extent of oligodendrocyte-mediated remyelination: did not affect the extent of oligodendrocyre-mediated remyelination
[3]
  anti-TMEV titers (total IgG, IgG1, IgG2a): reduced
[4]
  anti-TMEV DTH reactions: reduced
[5]
  virus expression (virus antigen-positive cells): tended to be higher
[6]; chronically diseased mice immunized with 5 mg
  highest antibody titer reached: 1.2 mg/mL
[6]; chronically diseased mice, 0.1 vs 5 mg injections
  dose dependence of production of antibodies against glatiramer acetate: highly dose-dependent
[6]; non-infected immunized mice
  influence of dose (0.1-1.0 mg) and injection timing on glatiramer acetate IgG titres: did not significantly influence glatiramer acetate IgG titres
  time required to achieve high antibody titres: Approximately 3 weeks
[7]
  lymphocyte proliferation: did not induce significant proliferation
[8]
  clinical effect in multiple sclerosis: reduce relapse rates, appearance of new lesions by magnetic resonance imaging (MRI), and progression of disability
[9]
  effect on EAE: inhibits rather than induces
